# Source: PubChem BioAssay AID588639 (Sanford-Burnham Center for Chemical Genomics, 2011)
# Several values for one entry are separate records, joined by “and”; a condition that tells them apart may be missing. Identical values can stand only once. Activity calls are given as the source filed them. The rule behind the calls is not given here.
# Target: Alkaline phosphatase, tissue-nonspecific isozyme (Homo sapiens) (UniProt P05186)
# Experiment: inhibition of tissue-nonspecific alkaline phosphatase – biochemical, set 2, selectivity assay for mouse IAP inhibitor project, SAR follow-up (AID 588639)
# Conditions: purified human TNAP enzyme activity, counter-screen for mouse IAP
# Sequence of Alkaline phosphatase, tissue-nonspecific isozyme (Homo sapiens) (P05186 whole entry, looked up): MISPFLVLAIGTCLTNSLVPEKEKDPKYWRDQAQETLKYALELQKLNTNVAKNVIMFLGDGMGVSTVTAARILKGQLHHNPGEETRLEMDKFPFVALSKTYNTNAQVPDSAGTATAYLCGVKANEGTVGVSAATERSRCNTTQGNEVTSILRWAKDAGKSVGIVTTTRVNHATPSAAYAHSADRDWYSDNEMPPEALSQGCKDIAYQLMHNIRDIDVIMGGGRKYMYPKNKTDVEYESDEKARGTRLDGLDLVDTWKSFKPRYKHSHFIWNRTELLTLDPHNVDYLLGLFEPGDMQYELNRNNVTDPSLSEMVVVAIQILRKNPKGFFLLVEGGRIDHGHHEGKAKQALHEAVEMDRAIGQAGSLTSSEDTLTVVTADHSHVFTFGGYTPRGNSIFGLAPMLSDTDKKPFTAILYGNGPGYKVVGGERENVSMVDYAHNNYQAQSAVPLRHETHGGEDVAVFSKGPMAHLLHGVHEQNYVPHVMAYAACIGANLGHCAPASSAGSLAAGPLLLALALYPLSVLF
row,Compound,IC50
1,O=C(NCc1ccc(F)cc1)C1CCCN(S(=O)(=O)c2ccc3[nH]c(=O)oc3c2)C1 (configuration not stated),> 100 µM (inactive)
2,COc1cccc(/C=N/NC(=O)c2cc(O)c(O)c(O)c2)c1O,> 100 µM (inactive)
3,O=C(CCNS(=O)(=O)c1ccc2c(c1)CCC2)NCCc1ccc2c(c1)OCO2,> 100 µM (inactive)
4,N#Cc1ccc(NS(=O)(=O)c2ccc3[nH]c(=O)oc3c2)cc1,> 100 µM (inactive)
5,COc1ccc(NC(=O)CCNS(=O)(=O)c2ccc3ccccc3c2)cc1OC,> 100 µM (inactive)
6,Cc1ccc(C)c(CNC(=O)C2CCCN(S(=O)(=O)c3ccc4[nH]c(=O)oc4c3)C2)c1 (configuration not stated),> 100 µM (inactive)
7,COc1ccc(C(=O)N/N=C/c2ccccc2F)cc1,> 100 µM (inactive)
8,COc1ccc(/C=N\NC(=O)c2cc(O)c(O)c(O)c2)cc1CN1CCN(c2ccc(F)cc2)CC1,> 100 µM (inactive)
9,COc1ccc(/C=N/NC(=O)c2cc(O)c(O)c(O)c2)cc1OC,> 100 µM (inactive)
10,CC(=NNC(=O)c1ccccc1OCCOc1ccccc1)c1ccccc1F,> 100 µM (inactive)
11,Cc1ccc(C)c(NC(=O)CCNS(=O)(=O)c2ccc3ccccc3c2)c1,> 100 µM (inactive)
12,CCc1ccc(NC(=O)C2CCCN(S(=O)(=O)c3ccc4c(c3)oc(=O)n4C)C2)cc1 (configuration not stated),> 100 µM (inactive)
13,CCOc1cc(C(=O)N/N=C/c2ccccc2F)cc(OCC)c1OCC,> 100 µM (inactive)
14,Cc1ccc(C)c(NC(=O)CNS(=O)(=O)c2ccc3[nH]c(=O)oc3c2)c1,> 100 µM (inactive) and 34.8 µM
15,COc1cccc(NC(=O)CCNS(=O)(=O)c2ccc3c(c2)oc(=O)n3C)c1,> 100 µM (inactive)
16,COc1ccc(CNC(=O)CCNS(=O)(=O)c2ccc3c(c2)CCC3)c(OC)c1,> 100 µM (inactive)
17,CSc1cccc(NC(=O)C2CCCN(S(=O)(=O)c3ccc4c(c3)oc(=O)n4C)C2)c1 (configuration not stated),> 100 µM (inactive)

row,Compound,IC50
1,O=C(CCS(=O)(=O)Nc1ccc2[nH]c(=O)oc2c1)NCc1cccc(F)c1,> 100 µM (inactive)
2,O=C(N/N=C/c1ccc(Br)cc1F)c1cc(O)ccc1O,> 100 µM (inactive)
3,Cc1ccc(NC(=O)CCNS(=O)(=O)c2ccc3c(c2)oc(=O)n3C)cc1C,> 100 µM (inactive)
4,CC(C)c1ccc(NC(=O)C2CCCN(S(=O)(=O)c3ccc4c(c3)oc(=O)n4C)C2)cc1 (configuration not stated),> 100 µM (inactive)
5,Cc1ccc(NC(=O)CCNS(=O)(=O)c2ccc3c(c2)oc(=O)n3C)c(C)c1,> 100 µM (inactive)
6,COc1ccc(OC)c(NC(=O)C2CCCN(S(=O)(=O)c3ccc4c(c3)oc(=O)n4C)C2)c1 (configuration not stated),> 100 µM (inactive)
7,N#Cc1cccc(NS(=O)(=O)c2ccc3[nH]c(=O)oc3c2)c1,> 100 µM (inactive)
8,COc1ccc(NC(=O)CCCNS(=O)(=O)c2ccc3[nH]c(=O)oc3c2)cc1OC,> 100 µM (inactive)
9,Cc1ccc(C)c(NC(=O)C2CCCN(S(=O)(=O)c3ccc4c(c3)oc(=O)n4C)C2)c1 (configuration not stated),> 100 µM (inactive)
10,O=C(N/N=C/c1ccccc1C(F)(F)F)c1cc(O)c(O)c(O)c1,> 100 µM (inactive)
11,O=C(CCNS(=O)(=O)c1ccc2ccccc2c1)NCCc1ccc2c(c1)OCO2,> 100 µM (inactive)
12,COc1cc(C(=O)N/N=C/c2c(F)cccc2Cl)cc(OC)c1OC,> 100 µM (inactive)
13,Cc1ccccc1CNC(=O)C1CCCN(S(=O)(=O)c2ccc3[nH]c(=O)oc3c2)C1 (configuration not stated),> 100 µM (inactive)
14,O=C(N/N=C/c1c(F)cccc1Cl)c1cc(O)c(O)c(O)c1,> 100 µM (inactive)
15,O=C(CNS(=O)(=O)c1ccc2[nH]c(=O)oc2c1)NCCc1ccc2c(c1)OCO2,> 100 µM (inactive)
16,O=C(N/N=C/c1cccc(Cl)c1Cl)c1cc(O)c(O)c(O)c1,> 100 µM (inactive)
17,O=c1[nH]c2ccc(S(=O)(=O)NCCc3ccc4c(c3)OCO4)cc2o1,> 100 µM (inactive)

# Results, then the compound that gave them:
row,IC50,Compound
1,> 100 µM (inactive),Cc1ccc(NC(=O)CCNS(=O)(=O)c2ccc3[nH]c(=O)oc3c2)cc1C
2,> 100 µM (inactive) and 81.4 µM,N#Cc1ccc(NC(=O)CNS(=O)(=O)c2ccc3[nH]c(=O)oc3c2)cc1
3,> 100 µM (inactive),O=C(CCNS(=O)(=O)c1ccc2[nH]c(=O)oc2c1)NCc1ccc(Cl)cc1
4,> 100 µM (inactive),Cc1ccc(CNC(=O)CCNS(=O)(=O)c2ccc3[nH]c(=O)oc3c2)cc1
5,> 100 µM (inactive),O=C(CCNS(=O)(=O)c1ccc2[nH]c(=O)oc2c1)NCc1cccc(F)c1
6,> 100 µM (inactive),O=C(CCNS(=O)(=O)c1ccc2[nH]c(=O)oc2c1)Nc1ccc2c(c1)OCO2
7,> 100 µM (inactive),Cc1ccccc1CNC(=O)CCCNS(=O)(=O)c1ccc2[nH]c(=O)oc2c1
8,> 100 µM (inactive),O=C(CCNS(=O)(=O)c1ccc2[nH]c(=O)oc2c1)NCc1ccccc1F
9,74.4 µM and 65.5 µM,COc1ccc(NC(=O)CCNS(=O)(=O)c2ccc3[nH]c(=O)oc3c2)cc1OC
10,> 100 µM (inactive),Cc1ccc(C)c(NC(=O)CCNS(=O)(=O)c2ccc3[nH]c(=O)oc3c2)c1
11,> 100 µM (inactive),Cc1cc(NC(=O)CCNS(=O)(=O)c2ccc3[nH]c(=O)oc3c2)ccc1Br
12,> 100 µM (inactive),N#Cc1cccc(CNC(=O)CCNS(=O)(=O)c2ccc3[nH]c(=O)oc3c2)c1
13,> 100 µM (inactive),COc1ccccc1CNC(=O)CCNS(=O)(=O)c1ccc2[nH]c(=O)oc2c1
14,> 100 µM (inactive),O=C(CCNS(=O)(=O)c1ccc2[nH]c(=O)oc2c1)NCc1ccc(O)c(O)c1
15,> 100 µM (inactive),O=C(CCNS(=O)(=O)c1ccc2[nH]c(=O)oc2c1)NCc1ccccc1
16,> 100 µM (inactive),O=C(CCNS(=O)(=O)c1ccc2[nH]c(=O)oc2c1)NCc1ccccc1Cl
17,> 100 µM (inactive),O=C(CCNS(=O)(=O)c1ccc2[nH]c(=O)oc2c1)NCc1ccc(C(F)(F)F)cc1
18,80.9 µM and > 100 µM (inactive),O=C(CCCNS(=O)(=O)c1ccc2[nH]c(=O)oc2c1)NCc1ccccc1Cl
